# Calls of active or inactive are those of the source. The rule behind the calls is not given here.
# Columns and labels:
# [1] = system: Trypanosoma cruzi; experiment: Trypanocidal activity against Trypanosoma cruzi MHOM/Pe/2011/Arequipa DTU 5 amastigotes infected in African green monkey Vero cells assessed as infected cells at 50 uM after 72 hrs by Giemsa-staining based assay relative to control; type: functional
# [2] = (§1) Hepatotoxicity in Balb/c mouse infected with Trypanosoma cruzi MHOM/Pe/2011/Arequipa DTU 5 trypomastigotes assessed as increase in ratio of serum ALT to GPT level at 20 mg/kg, po once daily for 5 consecutive days starting from day 75 post infection measured on day 127 post infection relative to control; type: toxicity, organism-based; details: in vivo
# [3] = Cardiotoxicity in Balb/c mouse infected with Trypanosoma cruzi MHOM/Pe/2011/Arequipa DTU 5 trypomastigotes assessed as change in serum LDH level at 20 mg/kg, po once daily for 5 consecutive days starting from day 75 post infection measured on day 81 post infection (reference value: 5951 U/L); type: toxicity, organism-based; details: in vivo
# [4] = system: Trypanosoma cruzi; experiment: (§2) Antitrypanosomal activity against Trypanosoma cruzi MHOM/Pe/2011/Arequipa DTU 5 trypomastigotes infected in Balb/c mouse assessed as reduction in parasitaemia level at 20 mg/kg, po once daily for 5 consecutive days starting from day 10 post infection measured every 2 to 3 days up to day 50 post infection starting from day 7 post infection by Neubauer chamber method; type: functional, organism-based
# [5] = Nephrotoxicity in Balb/c mouse infected with Trypanosoma cruzi MHOM/Pe/2011/Arequipa DTU 5 trypomastigotes assessed as serum uric acid level at 20 mg/kg, po once daily for 5 consecutive days starting from day 75 post infection measured on day 127 post infection (reference value: 4.8 mg/dl); type: toxicity, organism-based; details: in vivo
# [6] = (§3) Hepatotoxicity in Balb/c mouse infected with Trypanosoma cruzi MHOM/Pe/2011/Arequipa DTU 5 trypomastigotes assessed as increase in ratio of serum AST to GOT level at 20 mg/kg, po once daily for 5 consecutive days starting from day 75 post infection measured on day 81 post infection by biochemical analysis relative to control; type: toxicity, organism-based; details: in vivo
# [7] = Hepatotoxicity in Balb/c mouse infected with Trypanosoma cruzi MHOM/Pe/2011/Arequipa DTU 5 trypomastigotes assessed as increase in alkaline phosphatase level at 20 mg/kg, po once daily for 5 consecutive days starting from day 75 post infection measured on day 127 post infection relative to control; type: toxicity, organism-based; details: in vivo
# [8] = Hepatotoxicity in Balb/c mouse infected with Trypanosoma cruzi MHOM/Pe/2011/Arequipa DTU 5 trypomastigotes assessed as increase in total bilirubin level at 20 mg/kg, po once daily for 5 consecutive days starting from day 75 post infection measured on day 127 post infection relative to control; type: toxicity, organism-based; details: in vivo
# [9] = as §1, with “81” for “127”; type: toxicity, organism-based; details: in vivo
# [10] = Nephrotoxicity in Balb/c mouse infected with Trypanosoma cruzi MHOM/Pe/2011/Arequipa DTU 5 trypomastigotes assessed as decrease in serum urea level at 20 mg/kg, po once daily for 5 consecutive days starting from day 10 post infection measured on day 127 post infection relative to control; type: toxicity, organism-based; set-up: scale not given: the % may be the effect or the level left; details: in vivo
# [11] = as §3, with “Cardiotoxicity” for “Hepatotoxicity”, “decrease” for “increase”, “creatine kinase in muscle” for “serum AST”, “brain” for “GOT level”, “10” for “75”, “16” for “81”; type: toxicity, organism-based; set-up: scale not given: the % may be the effect or the level left; details: in vivo
# [12] = as §1, with “decrease” for “increase”, “AST” for “ALT”, “GOT” for “GPT”; type: toxicity, organism-based; set-up: scale not given: the % may be the effect or the level left; details: in vivo
# [13] = Hepatotoxicity in Balb/c mouse infected with Trypanosoma cruzi MHOM/Pe/2011/Arequipa DTU 5 trypomastigotes assessed as change in total bilirubin level at 20 mg/kg, po once daily for 5 consecutive days starting from day 75 post infection measured on day 81 post infection (reference value: 0.25 mg/dl); type: toxicity, organism-based; details: in vivo
# [14] = (§4) Hepatotoxicity in Balb/c mouse infected with Trypanosoma cruzi MHOM/Pe/2011/Arequipa DTU 5 trypomastigotes assessed as decrease in alkaline phosphatase level at 20 mg/kg, po once daily for 5 consecutive days starting from day 10 post infection measured on day 127 post infection by biochemical analysis relative to control; type: toxicity, organism-based; set-up: scale not given: the % may be the effect or the level left; details: in vivo
# [15] = system: Trypanosoma cruzi; experiment: as §2, with “on” for “every 2 to 3 days up to”, “40” for “50 post infection starting from day 7”; type: functional, organism-based
# [16] = as §4, with “Cardiotoxicity” for “Hepatotoxicity”, “serum LDH” for “alkaline phosphatase”, “16” for “127”; type: toxicity, organism-based; set-up: scale not given: the % may be the effect or the level left; details: in vivo
# [17] = system: Trypanosoma cruzi; experiment: (§5) Antitrypanosomal activity against Trypanosoma cruzi MHOM/Pe/2011/Arequipa DTU 5 trypomastigotes infected in Balb/c mouse assessed as parasite-free oesophagus at 20 mg/kg, po pretreated once daily for 5 consecutive days starting from day 75 post infection followed by cyclophosphamide-induced immunosuppression on day 100 post infection every 4 days for a maximum of 3 doses measured on day 127 post infection by PCR method; type: functional, organism-based
# [18] = system: Trypanosoma cruzi; experiment: as §5, with “muscle” for “oesophagus”; type: functional, organism-based
# [19] = system: Trypanosoma cruzi; experiment: as §5, with “stomach” for “oesophagus”; type: functional, organism-based
# [20] = Hepatotoxicity in Balb/c mouse infected with Trypanosoma cruzi MHOM/Pe/2011/Arequipa DTU 5 trypomastigotes assessed as decrease in serum ALT to GPT level at 20 mg/kg, po once daily for 5 consecutive days starting from day 10 post infection measured on day 16 post infection relative to control; type: toxicity, organism-based; set-up: scale not given: the % may be the effect or the level left; details: in vivo
# [21] = system: Trypanosoma cruzi; experiment: as §5, with “lungs” for “oesophagus”; type: functional, organism-based
structure (smiles),measurement,setting,value
Cl.Cl.Cl.Cl.Cl.Cl.c1ccc2nc(CNCCN(CCNCc3ccc4ccccc4n3)CCNCc3ccc4ccccc4n3)ccc2c1,Activity,[1],0%
same,Activity,[2],<= 10%
same,Activity,[3],6679 U/L
same,Activity,[4],inactive
same,Activity,[5],4.8 mg/dL
O=C(Cn1ccnc1[N+](=O)[O-])NCc1ccccc1 [BENZNIDAZOLE],Activity,[6],<= 20%
same,Activity,[7],<= 20%
same,Activity,[8],<= 20%
same,Activity,[9],<= 20%
same,Activity,[10],<= 10%
Cl.Cl.Cl.NCCN(CCN)CCNCc1ccc2c(c1)Cc1ccccc1-2,Activity,[11],<= 10%
same,Activity,[12],<= 10%
same,Activity,[13],0.25 mg/dL
same,Activity,[14],<= 10%
same,Activity,[15],Active
same,Activity,[16],<= 10%
same,Activity,[17],Active
same,Activity,[18],Active
same,Activity,[19],Active
same,Activity,[20],<= 10%
same,Activity,[21],Active

# Source: ChEMBL document CHEMBL4411300 (Eur J Med Chem, 2019)
